Measured values as given in patent publication US10034886B2, “GLP-1 receptor modulators” (Celgene International II SÀRL, priority 2014, dated 2018).

What follows are molecules tested against T1, GLP-1R (Homo sapiens, UniProt P43220) (assay: EC20 GLP-1(9-36) PAM cAMP assay: dose response of compound in the presence of fixed concentration of GLP-1(9-36)). Settings: GLP-1R CRE-bla CHO-K1 cells, compound dose response with fixed concentration of GLP-1(9-36), read-out: EC20 GLP-1(9-36) PAM EC50.
T1 construct: host or cells: GLP-1R CRE-bla CHO-K1 cells
T1 sequence (P43220 24-463): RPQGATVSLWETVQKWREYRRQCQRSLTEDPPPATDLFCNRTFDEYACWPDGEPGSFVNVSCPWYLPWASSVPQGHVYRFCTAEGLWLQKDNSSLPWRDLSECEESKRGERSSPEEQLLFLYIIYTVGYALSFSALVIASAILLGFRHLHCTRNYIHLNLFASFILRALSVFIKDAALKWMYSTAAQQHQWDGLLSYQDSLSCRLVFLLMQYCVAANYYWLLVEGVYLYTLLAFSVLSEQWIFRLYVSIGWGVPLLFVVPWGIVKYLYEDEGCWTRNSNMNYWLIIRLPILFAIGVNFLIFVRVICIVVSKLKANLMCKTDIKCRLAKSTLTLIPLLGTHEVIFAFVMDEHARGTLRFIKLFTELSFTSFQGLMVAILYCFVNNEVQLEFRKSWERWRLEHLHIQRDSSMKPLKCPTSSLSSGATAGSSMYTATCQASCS
T1 sequence (P01275 100-127 partner limits assumed): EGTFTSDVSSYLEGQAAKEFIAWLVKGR
Assay type: cell-based
Method in brief: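 GLP-1R CRE-bla CHO-K1 cells treated 30 min at 37 °C with 12-point compound dose response plus fixed EC20 GLP-1(9-36), with IBMX, in HBSS/HEPES/0.1% BSA pH 7.4. Total cAMP measured by luminescent detection against standard curve; EC50 and Emax from non-linear regression.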
For `CC[C@H]1CC[C@H](c2ccc(-c3cnc(-c4ccc(C[C@H](NC(=O)c5ccc(OC(C)C)cc5)C(=O)O)cc4)nc3)cc2)CC1` [Compound 1382], the EC50 was 800 to 2500 nM. In the case of `CCOc1ccc(/C=C/c2cnc(-c3ccc(C[C@H](NC(=O)c4ccc(C(C)(C)C)s4)C(=O)N[C@H](C)C(=O)O)cc3)nc2)cc1` [Compound 1258], the EC50 is reported as 800 to 2500 nM. In the case of `CC[C@H]1CC[C@H](c2ccc(-c3cnc(-c4ccc(C[C@H](NC(=O)c5ccc(C(C)(C)C)s5)C(=O)NCC(=O)O)cc4)nc3)cc2)CC1` [Compound 1323], the EC50 is reported as less than 800 nM. In the case of `CCC[C@H]1CC[C@H](c2ccc(-c3cnc(-c4ccc(C[C@H](NC(=O)c5ccc(C(C)(C)C)s5)C(=O)N[C@H](C)C(=O)O)cc4)nc3)cc2)CC1` [Compound 1265], the EC50 is reported as less than 800 nM. With `CC(C)(C)c1ccc(C(=O)N[C@@H](Cc2ccc(-c3ncc(-c4ccc(-c5ccc(OC(F)(F)F)cc5)cc4)cn3)cc2)C(=O)O)s1` [Compound 1356, (S)-2-(5-(tert-butyl)thiophene-2-carboxamido)-3-(4-(5-(4′-(trifluoromethoxy)-[1,1′-biphenyl]-4-yl)pyrimidin-2-yl)phenyl)propanoic acid] the EC50 was less than 800 nM. Work on `CC[C@H]1CC[C@H](c2ccc(-c3cnc(-c4ccc(C[C@H](NC(=O)c5ccc(OC(F)(F)F)cc5)C(=O)O)cc4)nc3)cc2)CC1` [Compound 1384] yielded an EC50 of 800 to 2500 nM. Molecule `CC(C)c1ccc(-c2ccc(-c3cnc(-c4ccc(C[C@H](NC(=O)c5ccc(C(C)(C)C)s5)C(=O)N5CC(C(=O)O)C5)cc4)nc3)c(F)c2)cc1` [Compound 1220] has an EC50 of less than 800 nM. Molecule `CCCOc1ccc(-c2ccc(-c3cnc(-c4ccc(C[C@H](NC(=O)c5ccc(C(C)(C)C)s5)C(=O)O)cc4)nc3)c(F)c2)cc1` [Compound 1360] has an EC50 of 2500 to 5000 nM. For `CCC[C@H]1CC[C@H](C2CCN(c3cnc(-c4ccc(C[C@H](NC(=O)c5ccc(CC)cc5)C(=O)N5CC(C(=O)O)C5)cc4)nc3)CC2)CC1` [Compound 1529], the EC50 was less than 800 nM.

Same assay, conditions: dose response of compound in presence of fixed concentration of GLP-1(9-36), GLP-1R CRE-bla CHO-K1 cells, read-out: EC20 GLP-1(9-36) PAM EC50
`CCCCCCCOc1ccc(-c2cnc(-c3ccc(C[C@H](NC(=O)c4ccc(C(C)(C)C)s4)C(=O)NCC4CC4)cc3)nc2)cc1` [Compound 968] was tested, and the EC50 was 5000 to 10000 nM. `CCCCCCCOc1ccc(-c2cnc(-c3ccc(C[C@H](NC(=O)c4ccc(C(C)(C)C)s4)C(=O)N[C@@H](C(=O)O)[C@@H](C)CC)cc3)nc2)cc1` [Compound 656] gave an EC50 of 800 to 2500 nM. `CCCCCCCOc1ccc(-c2cnc(-c3ccc(C[C@H](NC(=O)c4ccc(C(C)(C)C)cc4)C(=O)N4C[C@H](O)C[C@@H]4C(=O)O)cc3)nc2)cc1` [Compound 585] gave an EC50 of 800 to 2500 nM. `CCCCOc1ccc(CC(=O)N[C@@H](Cc2ccc(-c3ncc(-c4ccc([C@H]5CC[C@H](CC)CC5)cc4)cn3)cc2)C(=O)N2CC(C(=O)O)C2)cc1` [Compound 1161] showed an EC50 of 800 to 2500 nM. With `CCCCCCCOc1ccc(-c2cnc(-c3ccc(C[C@H](NC(=O)c4ccc(C(C)(C)C)s4)C(=O)N[C@@H](Cc4cscn4)C(=O)O)cc3)nc2)cc1` [Compound 627] the EC50 was less than 800 nM. `Cc1cc(-c2cnc(-c3ccc(C[C@H](NC(=O)c4ccc(C(C)(C)C)s4)C(=O)N[C@H](C)C(=O)O)cc3)nc2)ccc1-c1ccccc1` [Compound 1129] showed an EC50 of 800 to 2500 nM. `Cc1cc(-c2ccccc2)ccc1-c1cnc(-c2ccc(C[C@H](NC(=O)c3ccc(C(C)(C)C)s3)C(=O)N[C@H](C)C(=O)O)cc2)nc1` [Compound 1131] was tested, and the EC50 was 800 to 2500 nM. Work on `CCCCCCCOc1ccc(-c2cnc(-c3ccc(C[C@H](NC(=O)c4ccc(C(C)(C)C)s4)C(=O)N[C@@H](CC(=O)N(C)C)C(=O)O)cc3)nc2)cc1` [Compound 513] yielded an EC50 of less than 800 nM. `CCCCCCCOc1ccc2nc(-c3ccc(C[C@H](NC(=O)c4ccc(C(C)(C)C)cc4)C(=O)N[C@H](C)C(=O)O)cc3)ccc2c1` [Compound 806] showed an EC50 of 800 to 2500 nM. Work on `CCCCCCCOc1ccc2cc(-c3ccc(C[C@H](NC(=O)c4ccc(C(C)(C)C)cc4)C(=O)O)cc3)ncc2c1` [Compound 672, (S)-2-(4-(tert-butyl)benzamido)-3-(4-(7-(heptyloxy)isoquinolin-3-yl)phenyl)propanoic acid] yielded an EC50 of 2500 to 5000 nM. In the case of `CCCCCCCOc1ccc(-c2cnc(-c3ccc(C[C@H](NC(=O)c4ccc(CC(C)C)s4)C(=O)N4CC(C(=O)O)C4)cc3)nc2)cc1` [Compound 1119], the EC50 is reported as 800 to 2500 nM. `CCCCCCCOc1ccc(-c2cnc(-c3ccc(C[C@H](NC(=O)c4ccc(C(C)(C)C)s4)C(=O)NC(C(=O)O)C(O)c4ccc(C#N)cc4)cc3)nc2)cc1` (stereo partly shown) [Compound 911] showed an EC50 of 800 to 2500 nM. Work on `CCCCCCOc1ccc(-c2cnc(-c3ccc(C[C@H](NC(=O)c4ccc(C(C)(C)C)cc4)C(=O)N[C@H](C)C(=O)O)cc3)nc2)cc1` [Compound 719] yielded an EC50 of 800 to 2500 nM. `C[C@@H](NC(=O)[C@H](Cc1ccc(-c2ncc(-c3ccc(-c4cccc(F)c4)cc3)cn2)cc1)NC(=O)c1ccc(C(C)(C)C)s1)C(=O)O` [Compound 1134] was tested, and the EC50 was 800 to 2500 nM. `CCCCCCCc1ccc(-c2cnc(-c3ccc(C[C@H](NC(=O)c4ccc(C(C)(C)C)cc4)C(=O)NCCC(=O)O)cc3)nc2)cc1` [Compound 679] gave an EC50 of 800 to 2500 nM. For `CCCCCCCOc1ccc(-c2cnc(-c3ccc(C[C@H](NC(=O)c4ccc(C(C)(C)C)s4)C(=O)NS(C)(=O)=O)cc3)nc2)cc1` [Compound 419], the EC50 was less than 800 nM. `CCCCOc1ccc(-c2cnc(-c3ccc(C[C@H](NC(=O)c4ccc(C(C)(C)C)cc4)C(=O)NCCC(=O)O)cc3)nc2)cc1` [Compound 709] was tested, and the EC50 was 800 to 2500 nM. With `CCCCCCCOc1ccc(-c2cnc(-c3ccc(C[C@H](NC(=O)c4ccc(C(C)(C)C)s4)C(=O)N[C@@H](CCC)C(=O)O)cc3)nc2)cc1` [Compound 403] the EC50 was 800 to 2500 nM. In the case of `C/C=C/CCCOc1ccc(-c2cnc(-c3ccc(C[C@H](NC(=O)c4ccc(C(C)C)cc4)C(=O)NCCC(=O)O)cc3)nc2)cc1` [Compound 714], the EC50 is reported as 2500 to 5000 nM. In the case of `CCCCCCCOc1ccc(-c2cnc(-c3ccc(C[C@H](NC(=O)c4ccc(C(C)(C)C)s4)C(=O)NC(C(=O)O)C(C)c4ccccc4)cc3)nc2)cc1` (stereo partly shown) [Compound 636], the EC50 is reported as less than 800 nM. With `CCCCCCCOc1ccc(-c2cnc(-c3ccc(C[C@H](NC(=O)c4ccc(C(C)(C)C)s4)C(=O)NCC4(C(=O)O)CCNCC4)cc3)nc2)cc1` [Compound 606] the EC50 was 800 to 2500 nM. `CCCCCCCOc1ccc(-c2cnc(-c3ccc(C[C@H](NC(=O)c4ccc(C(C)(C)C)s4)C(=O)N4CC(C(=O)O)C4)cc3)nc2)nc1` [Compound 1066] showed an EC50 of 800 to 2500 nM. Molecule `CCCCCCCOc1ccc(-c2cnc(-c3ccc(C[C@H](NC(=O)c4ccc(C(C)(C)C)s4)C(=O)NS(N)(=O)=O)cc3)nc2)cc1` [Compound 421] has an EC50 of 800 to 2500 nM. For `CCCCCCCOc1ccc(-c2cnc(-c3ccc(C[C@H](NC(=O)c4ccc(C(C)(C)C)nc4)C(=O)N4CC(C(=O)O)C4)cc3)nc2)cc1` [Compound 1117], the EC50 was 800 to 2500 nM. Molecule `CC(C)(C)c1ccc(C(=O)N[C@@H](Cc2ccc(-c3ncc(-c4nc(-c5ccc(Cl)c(Cl)c5)no4)cn3)cc2)C(=O)NCCC(=O)O)cc1` [Compound 752] has an EC50 of 5000 to 10000 nM. With `C[C@@H](NC(=O)[C@H](Cc1ccc(-c2ncc(-c3ccc4c(ccn4S(=O)(=O)c4ccccc4)c3)cn2)cc1)NC(=O)c1ccc(C(C)(C)C)s1)C(=O)O` [Compound 1010] the EC50 was 2500 to 5000 nM. Molecule `C[C@@H](NC(=O)[C@H](Cc1ccc(-c2ncc(-c3ccc(-c4ccc(F)cc4F)cc3)cn2)cc1)NC(=O)c1ccc(C(C)(C)C)s1)C(=O)O` [Compound 1149] has an EC50 of 5000 to 10000 nM. With `CCCCCCCOc1ccc(-c2cnc(-c3ccc(C[C@H](NC(=O)/C=C/C(C)(C)C)C(=O)NC(C(=O)O)C(O)c4ccccc4)cc3)nc2)cc1` (stereo partly shown) [Compound 955] the EC50 was 5000 to 10000 nM.
